The subject of assay [1] is Drp1 S637 phosphorylation in human primary adipocyte cell line SGBS. Description: Immunoblot of phospho-Drp1 (S637) in human primary adipocytes (SGBS) after forskolin. It counts as cell-based. The settings on record: SGBS cells; pretreated with 50 μM RBC8 or DMSO for 30 min, then 20 μM forskolin. The procedure:
FIGS. 5A-5J. […] FIG. 5A: Quantification of phospho-Drp1 (S637) and total Drp1 in iWAT of HFD-fed Rala^f/f (n=10) and Rala^AKO (n=13) mice; P=0.0001. FIGS. 5B and 5C: Immunoblotting (FIG. 5B) and quantification (FIG. 5C) of phospho-Drp1 (S637) and total Drp1 in immortalized adipocytes (n=4 biological samples); P=0.0125 (FIG. 5C). Adipocytes were treated with 20 μM forskolin (Fsk) for indicated time. FIGS. 5D and 5E: Immunoblotting (FIG. 5D) and quantification of phospho-Drp1 (S637) and total Drp1 in human primary adipocytes (SGBS) (n=4 biological samples). […] Significance in correlation was assessed by Spearman's correlation test (FIGS. 5H, and 5J). […]
Tissues or cells were lysed or homogenized in RIPA buffer with freshly added Halt Protease and Phosphatase Inhibitor Cocktail (Thermo Fisher). […] Cleared supernatants were collected and concentrations were determined with a BCA protein assay kit (Pierce) and iTecan plate reader for quantification. […] Individual 10 proteins were detected with the specific antibodies (OXPHOS ab110413, β-tubulin 2146S, phospho-Drp1 (Ser637) 4867S, phospho-HSL (Ser660) 45804S, HSL 4107S, MYC 2276S, Drp1 8570S, phosphor-AMPK (Thr172) 2535S, AMPK 5831S, RalA BD610221, β-actin 66009-1-Ig, Flag 66008-4-Ig, GFP 66002-1-Ig, and Sec512751-1-AP). […] Bands were quantified with ImageStudio or ImageJ.

Assay [2] concerns Drp1 S637 phosphorylation in 3T3-L1 adipocytes. Description: Immunoblot of phospho-Drp1 (S637) in 3T3-L1 adipocytes after forskolin. The assay is classed as cell-based, murine. Particulars: pretreated with 50 μM RBC8 or DMSO for 30 min, then 5 μM forskolin. An excerpt:
Immunoblotting of phospho-Drp1 S637, total Drp1 and β-Tubulin in iWAT of HFD-fed Rala^f/f (n=10) and Rala^AKO (n=13) mice. FIGS. 12B and 12C: Immunoblotting (FIG. 12B) and quantification (FIG. 12C) of phospho-Drp1(S637), total Drp1, and β-Tubulin in eWAT of HFD-fed Rala^f/f (n=8) and Rala^AKO (n=12) mice. FIGS. 12D and 12E: Immunoblotting (FIG. 12D) and quantification (FIG. 12E) of phospho-Drp1(S637), total Drp1 and β-Actin in iWAT of CD-fed mice. Non-fasted Rala^f/f (vehicle n=3, CL n=4) and Rala^AKO (vehicle n=3, CL n=5) mice fed with CD were i.p. injected with 1 mg/kg CL for 30 min. P=0.0054, P=0.0135 (FIG. 12E). FIGS. 12F and 12G: Immunoblotting (FIG. 12F) and quantification (FIG. 12G) of phospho-Drp1(S637), total Drp1, RalA, and β-Actin in fully differentiated primary adipocytes (n=4 biological samples). P=0.0085, P=0.0046 (FIG. 12G). […] FIGS. 12H and 12I: Immunoblotting (FIG. 12H) and quantification (FIG. 12I) of phospho-Drp1(S637), total Drp1, RalA, and β-Actin in immortalized adipocytes (n=4 biological samples). […] FIGS. 12J and 12K: Immunoblotting (FIG. 12J) and quantification (FIG. 12K) of phospho-Drp1(S637), total Drp1, and β-Actin in 3T3-L1 adipocytes (n=4 biological samples). […] FIGS. 12M and 12N: Quantification of phospho-HSL (S660) and HSL in primary (FIG. 12M) and immortalized adipocytes (FIG. 12N) treated with CL for indicated time (n=4 biological samples). […]

As for `COc1ccc(OC)c(C2C(C#N)=C(N)Oc3n[nH]c(-c4ccc5ccccc5c4)c32)c1` (centres unmarked) [RBC8], the “forskolin-stimulated Drp1 S637 phosphorylation” value in assay [1] is given as “increased forskolin-stimulated Drp1 S637 phosphorylation”; in assay [2], “significantly increased forskolin-stimulated Drp1 S637 phosphorylation”.

These data come from patent US20250319162A1, “METHODS AND MATERIALS FOR TREATING OBESITY” (Regents of the University of California, priority 2024, published 2025).
